These results are taken from paper PMC3310325 (Bioconjugate Chemistry, 2012).

Series [1] deals with HT1080 human fibrosarcoma xenografts. The series can be described thus: In vivo planar fluorescence imaging in HT1080 tumor-bearing mice. Details: species or system human xenograft in male NCR nude mice.
Series [2] deals with T1, MMP-2 (Homo sapiens, UniProt P08253).
T1 sequence (P08253 110-660): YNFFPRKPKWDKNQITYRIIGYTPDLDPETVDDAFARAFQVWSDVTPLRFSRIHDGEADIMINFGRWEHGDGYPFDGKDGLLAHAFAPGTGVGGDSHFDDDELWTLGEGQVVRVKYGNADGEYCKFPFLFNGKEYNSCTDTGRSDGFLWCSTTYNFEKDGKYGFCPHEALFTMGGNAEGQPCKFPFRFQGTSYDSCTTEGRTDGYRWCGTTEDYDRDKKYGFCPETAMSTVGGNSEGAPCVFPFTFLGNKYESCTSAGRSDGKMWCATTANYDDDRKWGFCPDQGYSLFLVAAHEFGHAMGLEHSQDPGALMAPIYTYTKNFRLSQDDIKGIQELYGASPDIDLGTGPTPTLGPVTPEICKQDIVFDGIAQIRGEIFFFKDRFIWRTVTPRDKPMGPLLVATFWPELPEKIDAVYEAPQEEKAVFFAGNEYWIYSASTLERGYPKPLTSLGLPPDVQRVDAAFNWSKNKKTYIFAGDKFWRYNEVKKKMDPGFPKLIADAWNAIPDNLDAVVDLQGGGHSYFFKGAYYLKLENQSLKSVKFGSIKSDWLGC
Conditions: cited from earlier work.

Series [3] concerns the target T1, MMP-2. The settings on record: cited from earlier work. The source holds these as a separate data set.
Another series relates to MMP-9. Conditions: single-stranded peptide without the GPO triplets; cited from earlier work.
The conditions of series [4]: previously determined; cited from earlier work.
The subject of series [5] is MMP-7. Conditions: cited from earlier work.
In series [6] the test system is MMP-7. Conditions: -PLGVR- sequence; cited from earlier work.
The next series deals with MMP-1. Conditions: -PLGVR- sequence; cited from earlier work.
A further series relates to gelatinases. The settings on record: -PLGVR- sequence; cited from earlier work.
The next series relates to MMP-3. The settings on record: -PLGVR- sequence; cited from earlier work.
Series [7] relates to MMP-2. Conditions: 450 kDa co-polymer conjugated to -Pro-Leu-Gly~Val-Arg-Gly-; cited from earlier work.

Like-named read-outs stand apart in the source and are kept apart here.

For the molecule `CNC(=O)[C@H](Cc1c[nH]c2ccccc12)NC(=O)[C@@H](CC(=O)NO)CC(C)C` [Ilomastat], the “time course of tumor fluorescence intensity with inhibitor” value in [1] (mice treated with Ilomastat 1 mg/kg i.p., LS276-THP i.p.) is reported as “a steady increase in fluorescence intensity occurred, indicating incomplete inhibition of tumor-associated MMP-2/MMP-9 activity”.

In the case of -Pro-Leu-Gly~Val-Arg-Gly-, at MMP-2 [2], the Michaelis-Menten constant (Km) was 290 µM, the kcat was 4.1 s⁻¹ and the catalytic efficiency (kcat/KM) is 14000 M⁻¹ s⁻¹.

GPPG~VVGEKGEQ: the “hydrolysis by MMP-2” value on MMP-2 [3] (single-stranded peptide without the GPO triplets) is given as “hydrolyzed extremely slowly”. Also, the “hydrolysis by MMP-9” value in the series on MMP-9 was “hydrolyzed extremely slowly”.

For “[(GPO)5GPK((7-methoxycoumarin-4-yl)acetyl)GPPG~VVGEK(2,4-dinitrophenyl)GEQ(GPO)5]3 [fluorogenic THP]”, the “midpoint transition temperature TM” value in [4] was 45 °C. Moreover, on MMP-2 [3] (MMP-2 hydrolysis), the Km is 4.4 µM, the kcat is 0.062 s⁻¹ and the kcat/KM is on record as 14,000 s^−1M^−1.

In the case of GVPLSLTMGC, the level of quenching in the series with MMP-7 [5] (heterologous donor and acceptor pair of near infrared dyes on the N- and C-terminus) is 85%. Besides, the “fluorescence increase after digestion with MMP-7” value with MMP-7 [5] (heterologous donor/acceptor NIR dyes on N- and C-terminus) is reported as about 7 fold.

For -PLGVR- [MMPSense™ 680], the “proteolysis by MMP-7” value in the series on MMP-7 [6] is “subject to proteolysis”. In addition, the “proteolysis by MMP-1” value in the series on MMP-1 was “subject to proteolysis”. Further, the proteolysis by gelatinases result in the series on gelatinases is reported as “subject to proteolysis”. The “tumor contrast versus contralateral thigh” value in series [1] (24 h post-injection, MMPSense 680 2 nmol i.v., n=3) is on record as “about two-fold”. Further, in series [1] (MMPSense 680 2 nmol i.v. vs LS276-THP i.p.), the “tumor-specific fluorescence enhancement relative to LS276-THP” value is on record as “slightly higher”. Also, the “tumor-specific fluorescence contrast over time” value in series [1] (MMPSense 680 2 nmol i.v., n=3, 24 h) is reported as “increased over time for 24 h”. Besides, the “proteolysis by MMP-3” value with MMP-3 is “subject to proteolysis”.

As for “-Pro-Leu-Gly~Val-Arg-Gly- [poly-lysine-PEG co-polymer]”, the “in vivo visualization of MMP-2 activity” value in the series on MMP-2 [7] is given as “MMP-2 activity in mouse models was visualized”.
